Laboratory results taken from ChEMBL document CHEMBL6092180 (Eur J Med Chem, 2024).
≈ marks a conversion by molar mass, not a printed value.

Experiments:
Type in all cases: functional
Candida albicans [1] = test: Antifungal activity against fluconazole-resistant Candida albicans CaR assessed as inhibition of fungal growth by CLSI M27-A3 guidelines based method
Candida tropicalis = test: Antifungal activity against Candida tropicalis GIM 2.183 assessed as inhibition of fungal growth by CLSI M27-A3 guidelines based method
Candida albicans [2] = test: Antifungal activity against Candida albicans GIM 2.194 assessed as inhibition of fungal growth by CLSI M27-A3 guidelines based method
Candida parapsilosis = test: Antifungal activity against Candida parapsilosis GIM 2.190 assessed as inhibition of fungal growth by CLSI M27-A3 guidelines based method; settings: Lodderomyces parapsilosis
Aspergillus fumigatus = test: Antifungal activity against Aspergillus fumigatus cgmcc 3.7795 assessed as inhibition of fungal growth by CLSI M27-A3 guidelines based method
Candida albicans [3] = test: Antifungal activity against fluconazole and iodiconazole resistant Candida albicans clinical isolate 17# assessed as inhibition of fungal growth by CLSI M27-A3 guidelines based method
Nakaseomyces glabratus = test: Antifungal activity against Candida glabrata assessed as inhibition of fungal growth by CLSI M27-A3 guidelines based method
Cryptococcus neoformans = test: Antifungal activity against Cryptococcus neoformans CGMCC 2.3161 assessed as inhibition of fungal growth by CLSI M27-A3 guidelines based method
Candida albicans [4] = test: Antifungal activity against fluconazole-resistant Candida albicans clinical isolate 100 assessed as inhibition of fungal growth by CLSI M27-A3 guidelines based method
Candida albicans [5] = test: Antifungal activity against fluconazole-resistant Candida albicans clinical isolate 901 assessed as inhibition of fungal growth by CLSI M27-A3 guidelines based method
Candida albicans [6] = test: Antifungal activity against fluconazole-resistant Candida albicans clinical isolate 103 assessed as inhibition of fungal growth by CLSI M27-A3 guidelines based method
Candida albicans [7] = test: Antifungal activity against fluconazole-resistant Candida albicans clinical isolate 632 assessed as inhibition of fungal growth by CLSI M27-A3 guidelines based method
Pichia kudriavzevii = test: Antifungal activity against Candida krusei GIM 2.1 assessed as inhibition of fungal growth by CLSI M27-A3 guidelines based method
Candida albicans [8] = test: Antifungal activity against Candida albicans SC5314 assessed as inhibition of fungal growth by CLSI M27-A3 guidelines based method
Candida albicans [9] = test: Antifungal activity against fluconazole-resistant Candida albicans clinical isolate 311 assessed as inhibition of fungal growth by CLSI M27-A3 guidelines based method
Candida albicans [10] = test: Antifungal activity against fluconazole-resistant Candida albicans clinical isolate 904 assessed as inhibition of fungal growth by CLSI M27-A3 guidelines based method

Structure (SMILES)	MIC80 (Candida albicans [1]) [µg/mL]	MIC80 (Candida tropicalis) [µg/mL]	MIC80 (Candida albicans [2]) [µg/mL]	MIC80 (Candida parapsilosis) [µg/mL]	MIC80 (Aspergillus fumigatus) [µg/mL]	MIC80 (Candida albicans [3]) [µg/mL]	MIC80 (Nakaseomyces glabratus) [µg/mL]	MIC80 (Cryptococcus neoformans) [µg/mL]	MIC80 (Candida albicans [4]) [µg/mL]	MIC80 (Candida albicans [5]) [µg/mL]	MIC80 (Candida albicans [6]) [µg/mL]	MIC80 (Candida albicans [7]) [µg/mL]	MIC80 (Pichia kudriavzevii) [µg/mL]	MIC80 (Candida albicans [8]) [µg/mL]	MIC80 (Candida albicans [9]) [µg/mL]	MIC80 (Candida albicans [10]) [µg/mL]
C[C@@H](N(C)Cc1ccc(C#Cc2ccc(C#N)cc2)cc1)[C@](O)(Cn1cncn1)c1ccc(F)cc1F	0.5 (≈ 1 µM)	0.006 (≈ 0.0121 µM)	0.006 (≈ 0.0121 µM)	0.006 (≈ 0.0121 µM)	0.05 (≈ 0.1 µM)	0.25 (≈ 0.502 µM)	0.01 (≈ 0.0201 µM)	0.006 (≈ 0.0121 µM)	16 (≈ 32.2 µM)	8 (≈ 16.1 µM)	8 (≈ 16.1 µM)	8 (≈ 16.1 µM)	0.01 (≈ 0.0201 µM)	0.006 (≈ 0.0121 µM)	32 (≈ 64.3 µM)	32 (≈ 64.3 µM)
Cc1ccc(C#Cc2ccc(CN(C)[C@H](C)[C@](O)(Cn3cncn3)c3ccc(F)cc3F)cc2)cc1	0.25 (≈ 0.514 µM)	0.006 (≈ 0.0123 µM)	0.013 (≈ 0.0267 µM)	0.006 (≈ 0.0123 µM)	0.1 (≈ 0.206 µM)	0.5 (≈ 1.03 µM)	0.01 (≈ 0.0206 µM)	0.025 (≈ 0.0514 µM)	8 (≈ 16.4 µM)	8 (≈ 16.4 µM)	16 (≈ 32.9 µM)	4 (≈ 8.22 µM)	0.03 (≈ 0.0617 µM)	0.025 (≈ 0.0514 µM)	32 (≈ 65.8 µM)	32 (≈ 65.8 µM)
C[C@@H](N(C)Cc1ccc(C#Cc2cc(F)c(Cl)cc2F)cc1)[C@](O)(Cn1cncn1)c1ccc(F)cc1F	0.5 (≈ 0.921 µM)	0.006 (≈ 0.0111 µM)	0.05 (≈ 0.0921 µM)	0.006 (≈ 0.0111 µM)	0.2 (≈ 0.368 µM)	0.5 (≈ 0.921 µM)	0.05 (≈ 0.0921 µM)	0.013 (≈ 0.0239 µM)	4 (≈ 7.37 µM)	4 (≈ 7.37 µM)	8 (≈ 14.7 µM)	4 (≈ 7.37 µM)	0.05 (≈ 0.0921 µM)	0.013 (≈ 0.0239 µM)	32 (≈ 58.9 µM)	32 (≈ 58.9 µM)
C[C@@H](N(C)Cc1ccc(C#Cc2ccc(F)cc2)cc1)[C@](O)(Cn1cncn1)c1ccc(F)cc1F	0.25 (≈ 0.51 µM)	0.006 (≈ 0.0122 µM)	0.025 (≈ 0.051 µM)	0.006 (≈ 0.0122 µM)	0.1 (≈ 0.204 µM)	0.25 (≈ 0.51 µM)	0.01 (≈ 0.0204 µM)	0.013 (≈ 0.0265 µM)	4 (≈ 8.15 µM)	4 (≈ 8.15 µM)	8 (≈ 16.3 µM)	4 (≈ 8.15 µM)	0.03 (≈ 0.0612 µM)	0.025 (≈ 0.051 µM)	16 (≈ 32.6 µM)	16 (≈ 32.6 µM)
C[C@@H](N(C)Cc1ccc(C#Cc2ccc(F)c(F)c2)cc1)[C@](O)(Cn1cncn1)c1ccc(F)cc1F	0.25 (≈ 0.492 µM)	0.006 (≈ 0.0118 µM)	0.025 (≈ 0.0492 µM)	0.006 (≈ 0.0118 µM)	0.1 (≈ 0.197 µM)	0.5 (≈ 0.983 µM)	0.05 (≈ 0.0983 µM)	0.05 (≈ 0.0983 µM)	8 (≈ 15.7 µM)	8 (≈ 15.7 µM)	8 (≈ 15.7 µM)	4 (≈ 7.87 µM)	0.03 (≈ 0.059 µM)	0.013 (≈ 0.0256 µM)	8 (≈ 15.7 µM)	16 (≈ 31.5 µM)
C[C@@H](N(C)Cc1ccc(C#Cc2ccc([N+](=O)[O-])cc2)cc1)[C@](O)(Cn1cncn1)c1ccc(F)cc1F	0.25 (≈ 0.483 µM)	0.006 (≈ 0.0116 µM)	0.006 (≈ 0.0116 µM)	0.006 (≈ 0.0116 µM)	0.05 (≈ 0.0966 µM)	0.5 (≈ 0.966 µM)	0.01 (≈ 0.0193 µM)	0.013 (≈ 0.0251 µM)	16 (≈ 30.9 µM)	8 (≈ 15.5 µM)	8 (≈ 15.5 µM)	4 (≈ 7.73 µM)	0.01 (≈ 0.0193 µM)	0.013 (≈ 0.0251 µM)	16 (≈ 30.9 µM)	32 (≈ 61.8 µM)
CC(=O)c1ccc(C#Cc2ccc(CN(C)[C@H](C)[C@](O)(Cn3cncn3)c3ccc(F)cc3F)cc2)cc1	0.25 (≈ 0.486 µM)	0.006 (≈ 0.0117 µM)	0.013 (≈ 0.0253 µM)	0.006 (≈ 0.0117 µM)	0.1 (≈ 0.194 µM)	0.5 (≈ 0.972 µM)	0.01 (≈ 0.0194 µM)	0.013 (≈ 0.0253 µM)	16 (≈ 31.1 µM)	8 (≈ 15.5 µM)	16 (≈ 31.1 µM)	4 (≈ 7.77 µM)	0.01 (≈ 0.0194 µM)	0.013 (≈ 0.0253 µM)	16 (≈ 31.1 µM)	16 (≈ 31.1 µM)
C[C@@H](N(C)Cc1ccc(C#Cc2cc(F)c(F)cc2F)cc1)[C@](O)(Cn1cncn1)c1ccc(F)cc1F	1 (≈ 1.9 µM)	0.006 (≈ 0.0114 µM)	0.025 (≈ 0.0475 µM)	0.006 (≈ 0.0114 µM)	0.2 (≈ 0.38 µM)	2 (≈ 3.8 µM)	0.05 (≈ 0.095 µM)	0.025 (≈ 0.0475 µM)	8 (≈ 15.2 µM)	8 (≈ 15.2 µM)	8 (≈ 15.2 µM)	4 (≈ 7.6 µM)	0.05 (≈ 0.095 µM)	0.013 (≈ 0.0247 µM)	16 (≈ 30.4 µM)	32 (≈ 60.8 µM)
CN(Cc1ccc(C#Cc2ccccc2F)cc1)CC(O)(Cn1cncn1)c1ccc(F)cc1F (stereo not drawn)	–	0.006 (≈ 0.0126 µM)	0.013 (≈ 0.0273 µM)	0.006 (≈ 0.0126 µM)	–	–	0.05 (≈ 0.105 µM)	0.006 (≈ 0.0126 µM)	–	–	–	–	0.01 (≈ 0.021 µM)	0.006 (≈ 0.0126 µM)	–	–
C[C@@H](N(C)Cc1ccc(C#Cc2ccc(I)cc2)cc1)[C@](O)(Cn1cncn1)c1ccc(F)cc1F	16 (≈ 26.7 µM)	0.013 (≈ 0.0217 µM)	0.05 (≈ 0.0836 µM)	0.013 (≈ 0.0217 µM)	0.2 (≈ 0.334 µM)	16 (≈ 26.7 µM)	0.03 (≈ 0.0501 µM)	0.05 (≈ 0.0836 µM)	32 (≈ 53.5 µM)	16 (≈ 26.7 µM)	32 (≈ 53.5 µM)	16 (≈ 26.7 µM)	0.05 (≈ 0.0836 µM)	0.05 (≈ 0.0836 µM)	> 64	> 64
CCOC(=O)c1ccc(C#Cc2ccc(CN(C)CC(O)(Cn3cncn3)c3ccc(F)cc3F)cc2)cc1 (stereo not drawn)	–	0.013 (≈ 0.0245 µM)	0.013 (≈ 0.0245 µM)	0.006 (≈ 0.0113 µM)	–	–	0.1 (≈ 0.188 µM)	0.025 (≈ 0.0471 µM)	–	–	–	–	0.2 (≈ 0.377 µM)	0.013 (≈ 0.0245 µM)	–	–
